Active and inactive are the calls of the source.
How the values were obtained:
[1] = molecular target: Mu-type opioid receptor (Homo sapiens, UniProt P35372); type: functional, cell-based;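 also: U2OS cells with beta-arrestin recruitment to OPRM1 by beta-gal complementation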
[2] = molecular target: 5-hydroxytryptamine receptor 2A (Mus musculus, UniProt P35363); type: functional, cell-based;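 also: CHO-K1 cells with tagged receptor and beta-arrestin; agonist potency measured as compound-induced activation of the receptor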
[3] = molecular target: T1, Fructose-bisphosphate aldolase (Mycobacterium tuberculosis, UniProt P9WQA3); test: Fluorescence-based biochemical high throughput dose response assay for inhibitors of the fructose-bisphosphate aldolase (FBA) of M. tuberculosis.; type: functional
T1 sequence (P9WQA3 whole entry): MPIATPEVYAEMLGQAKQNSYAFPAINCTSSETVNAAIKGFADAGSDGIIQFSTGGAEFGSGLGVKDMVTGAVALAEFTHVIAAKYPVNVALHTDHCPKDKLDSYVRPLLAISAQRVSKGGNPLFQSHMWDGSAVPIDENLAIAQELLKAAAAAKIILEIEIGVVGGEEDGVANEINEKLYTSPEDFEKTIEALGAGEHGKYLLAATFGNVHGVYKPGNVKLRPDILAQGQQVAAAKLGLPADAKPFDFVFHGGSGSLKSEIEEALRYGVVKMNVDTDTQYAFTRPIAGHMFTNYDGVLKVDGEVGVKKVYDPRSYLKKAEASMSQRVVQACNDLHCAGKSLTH

[4] = molecular target: Beta-galactosidase (Escherichia coli, UniProt Q8VNN2); test: Dose response counterscreen for EBI2 assay utilizing the enzyme, b-galactosidase.; type: functional
[5] = molecular target: Cytochrome P450 2C9 (Homo sapiens, UniProt P11712)
[6] = molecular target: T2, Estrogen receptor (Homo sapiens, UniProt P03372); test: potentiators of ERα–SRC-1 coactivator binding, dose response, biochemical, TR-FRET, ERα LBD (AID 737)
T2 sequence (P03372 whole entry): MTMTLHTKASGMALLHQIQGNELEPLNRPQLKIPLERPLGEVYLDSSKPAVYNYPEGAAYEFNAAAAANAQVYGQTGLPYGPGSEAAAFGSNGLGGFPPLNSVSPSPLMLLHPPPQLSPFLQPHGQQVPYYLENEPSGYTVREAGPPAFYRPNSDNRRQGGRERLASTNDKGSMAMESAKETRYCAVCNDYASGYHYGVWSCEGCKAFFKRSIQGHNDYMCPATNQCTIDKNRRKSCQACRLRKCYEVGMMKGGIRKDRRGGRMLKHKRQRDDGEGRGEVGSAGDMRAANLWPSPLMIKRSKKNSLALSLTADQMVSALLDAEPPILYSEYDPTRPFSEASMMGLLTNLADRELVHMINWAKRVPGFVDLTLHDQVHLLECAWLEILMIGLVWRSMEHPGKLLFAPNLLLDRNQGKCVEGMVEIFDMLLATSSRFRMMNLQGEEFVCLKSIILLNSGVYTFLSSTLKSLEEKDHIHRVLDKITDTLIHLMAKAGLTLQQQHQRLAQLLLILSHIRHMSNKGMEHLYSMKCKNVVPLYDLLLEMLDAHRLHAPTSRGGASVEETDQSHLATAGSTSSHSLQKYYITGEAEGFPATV

[7] = cytotoxicity in HPDE-C7 cells, cell-based, fluorescence, HTS (AID 430); type: functional; details: Homo sapiens
[8] = cytotoxicity in KRAS-transformed pancreatic duct cells, primary screen, cell-based, fluorescence, HTS (AID 431); type: functional; details: Homo sapiens;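 also: cell line used: HPDE-C7K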
[9] = system: H9c2; test: cells; type: functional, cell-based; details: Rattus norvegicus, H9c2, Myocardium;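 also: confirmatory concentration-response retest of ultra-high-throughput screening hits for modulation of myocardial damage; cell death induced by hydrogen peroxide oxidative stress; compound pretreatment for 60 min then peroxide exposure for 2 h; potency is for protecting the cells against peroxide damage rather than for killing them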
[10] = molecular target: T3, Streptokinase A (Streptococcus pyogenes serotype M1, UniProt P10520); test: S. pyogenes streptokinase expression inhibitors, potency, dose response, plasminogen activation absorbance, OD405 (AID 1914); type: functional, Streptococcus pyogenes M1 GAS;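 also: secreted streptokinase activity via plasminogen activation per viability signal from cell pellet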
T3 sequence (P10520 whole entry): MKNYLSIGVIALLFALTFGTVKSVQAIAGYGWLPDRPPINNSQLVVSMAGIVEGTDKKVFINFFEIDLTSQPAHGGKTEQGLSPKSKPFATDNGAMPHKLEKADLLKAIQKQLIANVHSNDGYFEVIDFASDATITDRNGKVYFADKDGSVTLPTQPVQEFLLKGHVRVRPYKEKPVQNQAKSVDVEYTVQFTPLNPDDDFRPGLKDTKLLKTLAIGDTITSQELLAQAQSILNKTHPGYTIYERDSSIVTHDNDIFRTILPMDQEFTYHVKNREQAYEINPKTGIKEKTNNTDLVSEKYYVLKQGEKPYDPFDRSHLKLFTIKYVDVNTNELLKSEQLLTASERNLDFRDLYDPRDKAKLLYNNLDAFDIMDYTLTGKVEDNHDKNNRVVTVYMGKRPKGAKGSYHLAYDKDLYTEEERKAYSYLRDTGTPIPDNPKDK

[11] = molecular target: Heat shock protein HSP 90-alpha (Homo sapiens, UniProt P07900); type: functional, organism-based
[12] = system: Streptococcus; test: Group A Streptococcus viability loss, dose response, counter-screen for streptokinase expression inhibitor project, luminescence, BacTiterGlo (AID 1915); type: functional, organism-based;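 also: potency for reduction of bacterial viability or growth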
[13] = system: Streptococcus sp. 'group A'; test: growth inhibition of control SK(-) GAS strain, dose response, counter-screen for streptokinase expression inhibitor project, luminescence, kanamycin, BacTiterGlo, confirmation (AID 1900); type: functional, organism-based
[14] = system: HEK293; test: cells; type: functional, cell-based; details: Homo sapiens
[15] = microbe, parasite or virus in culture; type: functional; details: Mycobacterium tuberculosis
[16] = system: HEK293; test: cells; type: functional, cell-based; details: Homo sapiens; remark: listed apart in the source
[17] = system: HEK293; test: cells; type: functional, cell-based; details: Homo sapiens; remark: listed apart in the source
[18] = molecular target: Nucleotide-binding oligomerization domain-containing protein 2 (Homo sapiens, UniProt Q9HC29); test: NOD2 signaling inhibitors, cell-based, luminescence, uHTS, HEK293 (AID 1566); type: functional
[19] = system: HEK293; test: NOD1 signaling inhibitors, primary screen, cell-based, luminescence, uHTS (AID 1578); type: functional; details: Homo sapiens
[20] = system: HEK293; test: NOD2 signaling inhibitors in MDP-stimulated cells, cell-based, uHTS, luminescence (AID 2001); type: functional; details: Homo sapiens
[21] = molecular target: T4, Oxysterols receptor LXR-beta (Homo sapiens, UniProt P55055); type: functional, cell-based;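 also: agonist activity at LXR measured by a cell-based luminescence readout across a dose range, run as a counterscreen for daf-12 agonists; HEK293 cells with Gal4-LXR fusion and GAL4-driven luciferase reporter; potency for activation of Gal4-LXR reporter so compounds are agonists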
T4 sequence (P55055 whole entry): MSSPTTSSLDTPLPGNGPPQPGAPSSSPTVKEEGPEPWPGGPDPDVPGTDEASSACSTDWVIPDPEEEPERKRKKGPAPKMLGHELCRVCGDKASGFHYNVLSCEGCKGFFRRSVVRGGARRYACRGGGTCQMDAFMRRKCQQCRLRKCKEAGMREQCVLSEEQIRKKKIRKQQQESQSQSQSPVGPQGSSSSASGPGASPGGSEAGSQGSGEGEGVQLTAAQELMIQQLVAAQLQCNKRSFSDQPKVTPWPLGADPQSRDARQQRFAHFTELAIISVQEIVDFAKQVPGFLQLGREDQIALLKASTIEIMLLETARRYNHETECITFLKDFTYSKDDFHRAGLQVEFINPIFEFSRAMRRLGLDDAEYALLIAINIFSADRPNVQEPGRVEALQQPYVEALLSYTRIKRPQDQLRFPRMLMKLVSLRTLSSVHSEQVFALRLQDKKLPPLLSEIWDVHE

Beta-galactosidase, sequence (Q8VNN2 whole entry): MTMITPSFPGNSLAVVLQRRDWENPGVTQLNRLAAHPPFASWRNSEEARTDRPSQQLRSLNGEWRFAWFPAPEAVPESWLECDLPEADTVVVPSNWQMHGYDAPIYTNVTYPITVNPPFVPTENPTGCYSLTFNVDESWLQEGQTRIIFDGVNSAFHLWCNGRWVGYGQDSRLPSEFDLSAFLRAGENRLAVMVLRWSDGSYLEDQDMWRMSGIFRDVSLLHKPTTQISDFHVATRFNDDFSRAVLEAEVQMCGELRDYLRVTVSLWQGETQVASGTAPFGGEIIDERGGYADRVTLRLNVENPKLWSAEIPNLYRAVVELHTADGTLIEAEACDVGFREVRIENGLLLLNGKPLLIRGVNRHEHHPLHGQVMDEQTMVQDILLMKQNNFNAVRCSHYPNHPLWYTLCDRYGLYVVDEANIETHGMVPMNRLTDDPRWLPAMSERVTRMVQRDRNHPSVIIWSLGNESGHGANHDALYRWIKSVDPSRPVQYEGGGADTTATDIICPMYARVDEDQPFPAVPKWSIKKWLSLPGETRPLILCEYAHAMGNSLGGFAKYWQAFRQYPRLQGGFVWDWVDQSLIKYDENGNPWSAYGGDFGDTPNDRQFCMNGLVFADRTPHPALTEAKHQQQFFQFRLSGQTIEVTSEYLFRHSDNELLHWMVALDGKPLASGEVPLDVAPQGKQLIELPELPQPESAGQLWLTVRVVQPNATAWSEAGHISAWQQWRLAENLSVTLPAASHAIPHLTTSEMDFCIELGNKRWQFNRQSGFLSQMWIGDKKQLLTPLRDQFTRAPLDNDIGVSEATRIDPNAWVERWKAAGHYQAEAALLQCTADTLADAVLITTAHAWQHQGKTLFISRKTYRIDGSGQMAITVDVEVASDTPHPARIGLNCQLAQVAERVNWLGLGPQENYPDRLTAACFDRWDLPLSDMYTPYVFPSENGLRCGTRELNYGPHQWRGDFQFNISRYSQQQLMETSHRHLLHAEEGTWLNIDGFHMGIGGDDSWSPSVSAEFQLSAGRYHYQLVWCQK
5-hydroxytryptamine receptor 2A, sequence (P35363 whole entry): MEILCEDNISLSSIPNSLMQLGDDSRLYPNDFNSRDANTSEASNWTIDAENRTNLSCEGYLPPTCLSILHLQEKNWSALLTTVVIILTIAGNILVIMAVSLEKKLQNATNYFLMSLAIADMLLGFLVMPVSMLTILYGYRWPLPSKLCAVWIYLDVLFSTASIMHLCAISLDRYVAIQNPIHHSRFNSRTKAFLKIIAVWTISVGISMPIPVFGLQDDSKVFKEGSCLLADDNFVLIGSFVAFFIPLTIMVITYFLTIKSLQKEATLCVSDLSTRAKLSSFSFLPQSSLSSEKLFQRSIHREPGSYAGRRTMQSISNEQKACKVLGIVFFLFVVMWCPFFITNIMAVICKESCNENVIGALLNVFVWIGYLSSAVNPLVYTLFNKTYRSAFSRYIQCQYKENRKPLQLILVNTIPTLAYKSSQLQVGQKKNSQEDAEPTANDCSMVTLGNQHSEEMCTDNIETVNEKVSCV
Mu-type opioid receptor, sequence (P35372 whole entry): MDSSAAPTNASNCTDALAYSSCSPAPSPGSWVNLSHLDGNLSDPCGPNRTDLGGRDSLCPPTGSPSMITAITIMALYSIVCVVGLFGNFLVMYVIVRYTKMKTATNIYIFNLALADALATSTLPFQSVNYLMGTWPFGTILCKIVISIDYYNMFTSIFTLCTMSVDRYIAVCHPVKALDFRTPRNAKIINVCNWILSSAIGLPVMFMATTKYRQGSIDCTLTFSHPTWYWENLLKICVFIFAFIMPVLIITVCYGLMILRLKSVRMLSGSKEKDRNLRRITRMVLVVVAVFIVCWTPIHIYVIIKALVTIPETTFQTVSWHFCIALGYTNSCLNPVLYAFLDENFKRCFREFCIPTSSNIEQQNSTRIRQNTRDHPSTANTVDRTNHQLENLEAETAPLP
Cytochrome P450 2C9, sequence (P11712 whole entry, the tested form may be a part): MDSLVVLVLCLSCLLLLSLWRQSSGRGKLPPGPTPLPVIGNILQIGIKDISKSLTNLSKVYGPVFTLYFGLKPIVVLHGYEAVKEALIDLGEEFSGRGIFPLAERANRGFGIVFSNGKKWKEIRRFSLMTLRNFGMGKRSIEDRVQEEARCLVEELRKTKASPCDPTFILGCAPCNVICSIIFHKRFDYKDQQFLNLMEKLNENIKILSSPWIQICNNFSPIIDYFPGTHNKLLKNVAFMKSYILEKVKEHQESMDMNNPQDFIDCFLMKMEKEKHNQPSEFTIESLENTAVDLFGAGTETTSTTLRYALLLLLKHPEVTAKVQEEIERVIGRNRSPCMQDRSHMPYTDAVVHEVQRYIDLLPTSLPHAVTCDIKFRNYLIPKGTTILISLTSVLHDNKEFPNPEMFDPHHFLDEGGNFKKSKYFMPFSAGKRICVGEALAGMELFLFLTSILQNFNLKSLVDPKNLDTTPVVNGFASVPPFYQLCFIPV
Nucleotide-binding oligomerization domain-containing protein 2, sequence (Q9HC29 whole entry, the tested form may be a part): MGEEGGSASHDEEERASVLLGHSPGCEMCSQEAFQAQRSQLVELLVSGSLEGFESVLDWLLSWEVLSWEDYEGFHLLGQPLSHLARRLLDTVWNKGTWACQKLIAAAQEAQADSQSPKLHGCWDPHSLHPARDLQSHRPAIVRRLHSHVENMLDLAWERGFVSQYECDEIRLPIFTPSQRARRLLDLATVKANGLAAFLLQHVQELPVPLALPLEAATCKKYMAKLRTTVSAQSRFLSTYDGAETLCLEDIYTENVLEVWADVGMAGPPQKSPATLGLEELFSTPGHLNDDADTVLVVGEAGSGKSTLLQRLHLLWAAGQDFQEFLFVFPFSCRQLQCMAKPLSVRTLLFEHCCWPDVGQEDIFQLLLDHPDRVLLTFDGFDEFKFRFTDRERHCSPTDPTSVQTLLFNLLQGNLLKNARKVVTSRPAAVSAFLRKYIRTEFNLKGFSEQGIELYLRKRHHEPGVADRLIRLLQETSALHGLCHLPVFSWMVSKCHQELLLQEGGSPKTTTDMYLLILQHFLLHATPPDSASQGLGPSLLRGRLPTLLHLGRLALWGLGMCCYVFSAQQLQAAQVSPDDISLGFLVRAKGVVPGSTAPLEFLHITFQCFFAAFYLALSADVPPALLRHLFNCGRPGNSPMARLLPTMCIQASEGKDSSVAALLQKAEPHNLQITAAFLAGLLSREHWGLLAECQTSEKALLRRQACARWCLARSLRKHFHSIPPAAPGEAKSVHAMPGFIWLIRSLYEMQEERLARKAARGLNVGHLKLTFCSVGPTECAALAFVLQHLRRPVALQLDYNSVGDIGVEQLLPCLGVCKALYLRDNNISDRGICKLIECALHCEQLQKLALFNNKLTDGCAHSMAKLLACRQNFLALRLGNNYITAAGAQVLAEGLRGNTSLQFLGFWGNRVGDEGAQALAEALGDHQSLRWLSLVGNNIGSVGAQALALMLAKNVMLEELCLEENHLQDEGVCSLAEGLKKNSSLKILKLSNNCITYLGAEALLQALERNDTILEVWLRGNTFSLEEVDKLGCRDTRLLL

In the case of Oc1ccc(CN2CCN(c3ncccn3)CC2)cc1, the EC50 [1] is reported as 92.4 µM (inactive) and the EC50 [2] is reported as 0.496 µM (active).
In the case of CCOC(=O)N1CCN(CC(O)COC2CC(C)CCC2C(C)C)CC1 (stereo not drawn), the IC50 [3] is reported as > 9.99 µM (inactive).
With CCOC(=O)C1(CCOc2ccccc2)CCN(C(=O)c2ccc(-n3cccn3)cc2)CC1 the IC50 [4] was > 80 µM (inactive).
With COc1cc2c(cc1NC(=S)NC(=O)/C=C/c1ccco1)oc1ccccc12 the IC50 [4] was > 80 µM (inactive).
In the case of Cc1ccc(S(=O)(=O)NCCn2c(C)cc3ccccc32)cc1, the AC50 [5] is reported as 3.55 µM (inconclusive) and the EC50 [6] is reported as 28.7 µM (active).
For O=C(Oc1cccc2cccnc12)c1cccs1, the EC50 [7] was 3.46 µM (active) and the EC50 [8] was 4.38 µM (active).
In the case of Cc1ccc(-c2nn3c(C)nnc3s2)cc1NC(=O)COc1ccc(Cl)cc1, the IC50 [9] is reported as > 79 µM (inactive) and the EC50 [6] is reported as 17.2 µM (active).
With Cc1cc2n(n1)C(c1c[nH]c3ccccc13)Nc1ccccc1-2 (stereo not drawn) the EC50 [10] was 18.1 µM (active), the AC50 [11] was 6.08 µM (active) and the EC50 [12] was > 150 µM (not active). For the same molecule, the EC50 [7] was 12 µM (active), the EC50 [13] was 8.99 µM (active) and the EC50 [8] was 12.9 µM (active).
In the case of O=C(COc1ccc(Br)cc1)N1CCN(Cc2ccc3c(c2)OCO3)CC1, the IC50 [4] is reported as > 80 µM (inactive).
In the case of Cc1ccc(-c2csc(N3CCN(CCCn4c(-c5ccncc5)nc5ccccc54)CC3)n2)cc1, the IC50 [14] is reported as 11.4 µM (active), the CC50 [15] is reported as > 40 µM (active) and the IC50 [16] is reported as 4.3 µM (active). For the same molecule, the IC50 [17] was > 20 µM (inactive), the EC50 [18] was 12.3 µM (active) and the EC50 [19] was 6.11 µM (active). For the same molecule, the IC50 [20] was 4.62 µM (active).
For Cc1ccnc(NC(=O)CCNS(=O)(=O)c2ccc(C)c(C)c2)c1, the EC50 [21] was > 67.6 µM (inactive).
In the case of O=C(c1cccc(C(=O)N(c2ccccn2)C2CCCCC2)c1)N(c1ccccn1)C1CCCCC1, the EC50 [1] is reported as 92.5 µM (inactive) and the EC50 [2] is reported as 76.1 µM (inactive).
